Results taken from patent US20140221283A1 (Indiana University Research and Technology Corporation, priority 2011, published 2014).
*1 amine or outer side, *2 acyl side, *3 side chain or, on linkers, in order; H or OH if unused. Where no end group is shown, it is not given here. Side-chain parts run from the residue outwards. [ ]: non-standard residue; d: D form. The star is where a group is joined. γGlu = O=C(O)[C@H](CCC(=O)[*:2])N[*:1]; Palmitoyl = CCCCCCCCCCCCCCCC(=O)*

Columns and labels:
[1] = body weight of diet-induced obese (DIO) mice dosed daily for nine days (Example 7); format: in vivo; conditions: Day 9; for body weight reduction: 3 nmol/kg daily; for body weight loss: 9 nmol/kg daily
Experimental: (§1) Mice were administered a vehicle control or a dose of a peptide daily for nine days. The peptides tested in this study included a peptide of SEQ ID NO: 12, a peptide of SEQ ID NO: 17, a peptide of SEQ ID NO: 18, and a peptide of SEQ ID NO: 19. Doses of each peptide were varied—each of the peptides of SEQ ID NO: 12, 17, and 19 was administered at a dose of either 3 nmol/kg or 9 nmol/kg, while the peptide of SEQ ID NO: 18 was administered at a dose of 1 nmol/kg, 3 nmol/kg, or 9 nmol/kg. Data are expressed as mean±SEM.

[2] = ambient glucose levels of DIO mice dosed daily for nine days (Example 7); format: in vivo; conditions: for decrease in ambient glucose vs. vehicle: by Day 4
Experimental: as §1
In addition to cumulative body weight change, ambient glucose levels of the DIO mice were measured.

| Substance | body weight reduction [1] [%] | body weight loss [1] [%] | decrease in glucose levels compared to vehicle control mice ([2]; 9 nmol/kg daily, Day 4) [%] | decrease in glucose levels compared to vehicle control mice ([2]; 9 nmol/kg daily, Day 7) [%] | decrease in glucose levels compared to vehicle control mice ([2]; 9 nmol/kg daily, Day 9) [%] | decrease in ambient glucose vs. vehicle ([2]; 3 nmol/kg daily) [%] | decrease in ambient glucose vs. vehicle ([2]; 9 nmol/kg daily) [%] |
| --- | --- | --- | --- | --- | --- | --- | --- |
| SEQ ID NO: 19: peptide of SEQ ID NO: 19 tested in DIO mice; sequence only in the sequence listing (H[dS]QGTFTSDK([γGlu-Palmitoyl])SKYLDERAAQDFVQWLLDT-NH2; N-terminus assumed; SMILES CCCCCCCCCCCCCCCC(=O)N[C@@H](CCC(=O)NCCCC[C@H](NC(=O)[C@H](CC(=O)O)NC(=O)[C@H](CO)NC(=O)[C@@H](NC(=O)[C@H](Cc1ccccc1)NC(=O)[C@@H](NC(=O)CNC(=O)[C@H](CCC(N)=O)NC(=O)[C@@H](CO)NC(=O)[C@@H](N)Cc1c[nH]cn1)[C@@H](C)O)[C@@H](C)O)C(=O)N[C@@H](CO)C(=O)N[C@@H](CCCCN)C(=O)N[C@@H](Cc1ccc(O)cc1)C(=O)N[C@@H](CC(C)C)C(=O)N[C@@H](CC(=O)O)C(=O)N[C@@H](CCC(=O)O)C(=O)N[C@@H](CCCNC(=N)N)C(=O)N[C@@H](C)C(=O)N[C@@H](C)C(=O)N[C@@H](CCC(N)=O)C(=O)N[C@@H](CC(=O)O)C(=O)N[C@@H](Cc1ccccc1)C(=O)N[C@H](C(=O)N[C@@H](CCC(N)=O)C(=O)N[C@@H](Cc1c[nH]c2ccccc12)C(=O)N[C@@H](CC(C)C)C(=O)N[C@@H](CC(C)C)C(=O)N[C@@H](CC(=O)O)C(=O)N[C@H](C(N)=O)[C@@H](C)O)C(C)C)C(=O)O) | ~8.1 | ~31.5 | ~40 | ~39 | ~26 |  |  |
| SEQ ID NO: 18: peptide of SEQ ID NO: 18 tested in DIO mice; sequence only in the sequence listing (HXQGTFTSDKSKYLDERAAQDFVQWLMDT; not fully specified; Xaa is AIB; Acylated with a C16 fatty acyl group via gamma- Glu-gamma-Glu spacer; C-terminal amidation) | ~12.3 | ~26.8 |  |  |  | −29 | −29 |
